These results are taken from patent publication US20260131007A1, “Mannose 6-Phosphate Receptor Binding Compounds for the Degradation of Extracellular Proteins” (Avilar Therapeutics, Inc., priority 2023, published 2026).

One assay concerns K562 cells. In words: Ternary complex formation (TCF) in K562 cells, flow cytometry with AF488-labeled human IgG. Conditions: AF488-labeled human IgG 300 nM, 4° C., 1 hour. Type of assay: cell-based. Here is the method:
K562 cells were seeded in 96-well assay plate using K562 cell medium, then compounds and AF488-labeled human IgG (final concentration of 300 nM) were added at 4° C. and incubated for 1 hour. Afterwards, the cells were washed once with 1×PBS+0.1% BSA (Cold) and centrifuged at 1000 rpm for 5 minutes. Next, cells were re-suspended in 150 μL 1×PBS+0.1% BSA and ran flow cytometry on iQue® Screener PLUS.
In general terms: Flow cytometry measures light scatter and fluorescence of single cells or particles in a stream.

Assay [1] has as its target T1, hIGF-IIR and IgG1 (ternary complex) (Homo sapiens, UniProt P01857+P11717).
T1 construct: purchased R&D Systems 6418-GR
The assay can be described thus: HTRF-based ternary complex formation assay for hIGF-IIR targeting Extracellular Protein Degraders. Type of assay: binding. The text has this: The ternary complex formation assay is designed to identify and determine the potency of Extracellular Protein Degrader molecules which can induce the formation of ternary complex between the Extracellular Protein Degrader hIGF-IIR. Titrating Extracellular Protein Degrader to fixed amount of hIGF-IIR results in a bell-shaped curve (except molecules whose binary complex affinity between Extracellular Protein Degrader and hIGF-IIR). The peak mean represents Extracellular Protein Degrader concentration at which maximum ternary complex is formed. Too much or too little Extracellular Protein Degrader leads to decreased ternary complex formation due to formation of binary complex (Hook effect). Dose response of Extracellular Protein Degrader compounds (16-point 3-fold dilution series, 100X) were prepared by Echo Acoustic Liquid Handler (Beckman Coulter Life Sciences) using 384-well LDV microplate. Then 200 nL of the solutions were transferred to an OptiPlate 384-well microplate (PerkinElmer, 6007290). To the assay plate, 10 μL working solution containing 60 nM of Biotinylated-IgG1 (Viva 20211108) and 60 nM of His-tagged hIGF-IIR (R&D Systems, 6418-GR) in assay buffer 50 mM Tris, pH 7.5, 150 mM NaCl, 50 mM CaCl2, 0.01% Tween-20 were added. The plate was incubated for 60 min at room temperature with gentle shaking to allow molecular interaction to reach equilibration. Following this, 10 μL of HTRF detection solution containing 15 nM Streptavidin-d2 (PerkinElmer, 610SADLA) and 0.7 nM MAb Anti 6HIS—Tb cryptate (PerkinElmer, 61HISTLA) in PPI Terbium detection buffer (PerkinElmer, 61DB10RDF) were added. The assay plate was incubated at room temperature with gentle shaking for 60 min to allow HTRF signal to develop. The plate was gently spun on a centrifuge then placed on an EnVision plate reader (Perkin Elmer, EnVision 2104) to read fluorescence ratio of 665 nm/615 nm. Data were analyzed by fitting with Bell-shaped non-linear regression model using GraphPad Prism (GraphPad Software, LLC; version 9.4.1). Mean fluorescence intensity is graphed versus compound concentration and the EC50 for TCF is calculated from the inflection point of the curve (GraphPad).
For orientation: In TR-FRET formats the signal depends on donor and acceptor labels being close together.

A further assay concerns IgG. In words: Uptake and degradation in K562 cells (Western blot). Type of assay: cell-based, human. Conditions: K562 cells treated with compound and IgG; FIG. 14-17. Here is the method:
On day one, cells were harvested, counted, and seeded 1 million/well in 6 well plates for each cell line. On day two, cells were treated with compounds and IgG (Sigma, Cat #14506 dissolved in medium). Treated cells were washed three times with PBS, followed by addition of 200 μL of RIPA buffer (+HALT protease and phosphatase inhibitors) per well. Lysates were left on ice for 5 minutes then were collected into microcentrifuge tubes using a cell scraper. Lysates were then kept on a shaker for 30-60 minutes at 4° C. followed by centrifugation at 14,000 rpm at 4° C. for 15 minutes. Then, supernatants were transferred to fresh tubes and total protein concentration of each sample was determined using Pierce BCA kit. Next, 25 ug total protein of each sample was resolved on a 4-20% gels and transferred to PVDF membranes. Membranes were blocked in TBST+5% milk (made fresh) for one hour while shaking at room temperature. Then, the first antibody was added in TBST+5% milk at 4° C. overnight: a) Rabbit anti-human IgG, Abcam; Cat #ab181236-1:1000, b) anti-β-actin, Cell signaling Tech, Cat #3700S)-1:3000. On the next day, membranes were washed with TBST 10 minutes each for three times. Later, the second antibody was added in TBST+5% milk at room temperature over one hour: a) IRDye 800CW Goat anti Rabbit IgG, Licor, Cat #926-32211)-1:10,000; b) IRDye 680RD Goat anti Mouse IgG (Licor Cat #926-68078)-1:10,000. Then, membranes were washed with TBST 10 minutes each for three times. The results were detected by Licor. Data from the uptake and degradation assay is shown in FIG. 14, FIG. 15, FIG. 16, and FIG. 17.
(In general: A western blot detects proteins with antibodies after separation by electrophoresis.)

The next assay relates to human IgG (hIgG). In words: DMPK study: degradation of coadministered human IgG in rats. Conditions: male SD rats, IgG 200 mg/kg IV, compound IV an hour later; FIG. 11, FIG. 12. In kind it is in vivo. The procedure:
The dose formulation of IgG at 200 mg/kg was administered via IV injection to male SD rats, and Compound 5 was administered via IV injection an hour later (after IgG dosing). About 0.2 mL of blood was collected via jugular vein at each time point and was transferred into pre-cooled low binding EP tubes containing 4 μL of K2-EDTA (0.5 M) as anti-coagulant placed on wet ice. After blood was collected, the samples were processed for plasma by centrifugation at approximately 4° C., 3200 g for 10 minutes, the plasma was obtained within 30 minutes of blood collection. Then the plasma was transferred to two clean low binding EP tubes (50 μL each, one for PK, one for PD) and quickly frozen over dry ice and kept below −60° C. or lower for LC-MS/MS analysis. Plasma concentration versus time data was plotted in graph and analyzed by non-compartmental approaches using the Phoenix WinNonlin 6.3 software program. Related PK parameters were calculated according to dosing route, e.g. CL, Vdss and C0 for intravenous administration, Cmax, Tmax or % F for extravascular administration, and T1/2, AUC(0-1), AUC(0-inf), MRT(0-1), MRT(0-inf) for all routes. The quantification of human IgG concentration in animal plasma was conducted using human IgG ELISA kit. Plotted pharmacokinetic and pharmacodynamic data can be found in FIG. 10, FIG. 11, FIG. 12, and FIG. 13.

Assay [2] addresses AF488-labeled human IgG (human). In words: flow cytometry, ternary complex formation on K562 cells at 4 C, compound + 300 nM AF488-labelled human IgG; grade read by the legend '<50 nM = ***'.
Assay [3] addresses Biotinylated-IgG1 (Viva 20211108). The assay can be described thus: HTRF ternary complex formation: compound titrated into 60 nM biotinylated IgG1 + 60 nM His-tagged hIGF-IIR (R&D 6418-GR); grade read by the legend '<50 nM = ***'.
Assay [4] concerns the target AF488-labeled human IgG (human). In words: flow cytometry, ternary complex formation on K562 cells at 4 C, compound + 300 nM AF488-labelled human IgG; grade read by the legend '50 nM < IC50 < 250 nM = **'.

Several values for one entry are separate records, joined by “and”; a condition that tells them apart may be missing. Identical values can stand only once. Bridge positions count the residues as written; N and C are the ends. Square brackets hold non-standard residues; d marks the D form. Some results are limits rather than exact numbers.

The EC50 is the midpoint of the concentration-response curve. `CC(C)C[C@@H]1NC(=O)[C@H](Cc2cnc[nH]2)NC(=O)[C@H](Cc2c[nH]c3ccccc23)NC(=O)[C@H](C)NC(=O)[C@@H]2CSSC[C@H](NC(=O)[C@H](Cc3c[nH]c4ccccc34)CC(=O)[C@H](C(C)C)NC(=O)[C@H](CC(C)C)NC(=O)[C@H](CCC(=O)O)NC(=O)CNC1=O)C(=O)N[C@@H]([C@@H](C)O)C(=O)N1CCC[C@@H]1C(=O)N1C[C@@H](NC(=O)COCCOCCOCC(=O)NC(COCCC(=O)NCCOCCn3cc(CCO[C@H]4O[C@H](CCP(=O)(O)O)[C@@H](O)[C@H](O)[C@@H]4O)nn3)(COCCC(=O)NCCOCCn3cc(CCO[C@H]4O[C@H](CCP(=O)(O)O)[C@@H](O)[C@H](O)[C@@H]4O)nn3)COCCC(=O)NCCOCCn3cc(CCO[C@H]4O[C@H](CCP(=O)(O)O)[C@@H](O)[C@H](O)[C@@H]4O)nn3)C[C@H]1C(=O)N[C@@H](CC(=O)O)C(=O)N2` [Compound 5]: the EC50 is 0.05 to 0.25 µM with K562 cells and less than 0.05 µM in assay [1]. For the same molecule, in the assay on IgG, the “degradation of IgG (gel electrophoresis image)” value is “degradation of IgG”. Moreover, the “degradation of coadministered human IgG (percent of initial hIgG over time)” value with human IgG (hIgG) is on record as “degradation of coadministered human IgG”.

B1: Compound 12 (peptide)
peptide: cyclo(ELVWCT[dP]PDCAWHLG)
modifications: disulfide 5-10; not fully specified (residue 8); also: one triazole-linked A83 group on the PEG8 linker
As to B1, the EC50 in assay [2] and in assay [3] was less than 0.05 µM throughout.

B2: Compound 5 (peptide)
peptide: cyclo(ELVWCT[dP]PDCAWHLG)
modifications: disulfide 5-10; not fully specified (residue 8); also: trivalent linker structure not given here
Regarding B2, the 50% effective concentration (EC50) is > 0.05 µM and < 0.25 µM in assay [4]; less than 0.05 µM in assay [3].
